PubChem BioAssay AID1963447 (Molecular Pharmacology Branch, DTP, NCI, 2024)

Test system: 885512-296-R-J2-PDC complex spheroid growth, % test/control
Experiment: Anticancer human tumor 885512-296-R-J2-PDC patient-derived breast carcinoma cell line growth inhibition [Asc]
Conditions: for IC50: curve of first compound; for viability, T/C: stronger effect = lower value
In short: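 Stromal components (HUVEC and hMSC) are co-assembled with the cancer cells into multicellular spheroids. Drugs are then added singly or paired, at concentrations falling by half-log increments from a clinically achievable maximum, capped at 10 microM without known Cmax.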
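Further: spheroids exposed to compounds for seven days.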
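Wherever viability, T/C is given: 100% = DMSO vehicle control wells.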

Structure (SMILES): NC1CCC(NC2CC2c2ccccc2)CC1 (stereo not given) + CCN1C(C(=O)NC23CCC(C(=O)O)(CC2)CC3)C(c2cccc(Cl)c2F)C2(C(=O)Nc3cc(Cl)ccc32)C12CCCCC2
- IC50 (second compound 0.03 µM): > 100 nM
- IC50 (second compound 0.0949 µM): > 100 nM
- IC50 (second compound 0.3 µM): > 100 nM
- IC50 (second compound 0.949 µM): > 100 nM
- IC50 (second compound 3 µM): > 100 nM
- viability, T/C (second compound 0.03 µM, first compound 0.000316 µM): 116%
- viability, T/C (second compound 0.03 µM, first compound 0.001 µM): 129%
- viability, T/C (second compound 0.03 µM, first compound 0.00316 µM): 120%
- viability, T/C (second compound 0.03 µM, first compound 0.01 µM): 123%
- viability, T/C (second compound 0.03 µM, first compound 0.0316 µM): 125%
- viability, T/C (second compound 0.03 µM, first compound 0.1 µM): 118%
- viability, T/C (second compound 0.0949 µM, first compound 0.000316 µM): 117%
- viability, T/C (second compound 0.0949 µM, first compound 0.001 µM): 123%
- viability, T/C (second compound 0.0949 µM, first compound 0.00316 µM): 127%
- viability, T/C (second compound 0.0949 µM, first compound 0.01 µM): 114%
- viability, T/C (second compound 0.0949 µM, first compound 0.0316 µM): 124%
- viability, T/C (second compound 0.0949 µM, first compound 0.1 µM): 119%
- viability, T/C (second compound 0.3 µM, first compound 0.000316 µM): 108%
- viability, T/C (second compound 0.3 µM, first compound 0.001 µM): 116%
- viability, T/C (second compound 0.3 µM, first compound 0.00316 µM): 118%
- viability, T/C (second compound 0.3 µM, first compound 0.01 µM): 108%
- viability, T/C (second compound 0.3 µM, first compound 0.0316 µM): 118%
- viability, T/C (second compound 0.3 µM, first compound 0.1 µM): 118%
- viability, T/C (second compound 0.949 µM, first compound 0.000316 µM): 99.8%
- viability, T/C (second compound 0.949 µM, first compound 0.001 µM): 102%
- viability, T/C (second compound 0.949 µM, first compound 0.00316 µM): 104%
- viability, T/C (second compound 0.949 µM, first compound 0.01 µM): 99.7%
- viability, T/C (second compound 0.949 µM, first compound 0.0316 µM): 103%
- viability, T/C (second compound 0.949 µM, first compound 0.1 µM): 104%
- viability, T/C (second compound 3 µM, first compound 0.000316 µM): 66.5%
- viability, T/C (second compound 3 µM, first compound 0.001 µM): 62.2%
- viability, T/C (second compound 3 µM, first compound 0.00316 µM): 62.2%
- viability, T/C (second compound 3 µM, first compound 0.01 µM): 70.7%
- viability, T/C (second compound 3 µM, first compound 0.0316 µM): 71.4%
- viability, T/C (second compound 3 µM, first compound 0.1 µM): 74.8%
